#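 Where inhibition never reached the appropriate level, the endpoint shown equals the highest concentration tested. Otherwise, values were interpolated linearly from a five-concentration, 48-hour dose response in 96-well plates. At the TGI there is no net growth.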
# Key:
# Assay in all cases: NCI-60 cell line screen, 48 h
# 786-0 renal = test system: 786-0 renal
# CAKI-1 renal = test system: CAKI-1 renal
# HCC-2998 colon = test system: HCC-2998 colon
# HL-60(TB) leukemia = test system: HL-60(TB) leukemia
# K-562 leukemia = test system: K-562 leukemia
# NCI-H522 lung = test system: NCI-H522 lung
# RPMI-8226 leukemia = test system: RPMI-8226 leukemia
# SF-268 CNS = test system: SF-268 CNS
# SK-OV-3 ovarian = test system: SK-OV-3 ovarian
# SNB-75 CNS = test system: SNB-75 CNS
# SR leukemia = test system: SR leukemia
Structure (SMILES),TGI (786-0 renal),TGI (CAKI-1 renal),TGI (HCC-2998 colon),TGI (HL-60(TB) leukemia),TGI (K-562 leukemia),TGI (NCI-H522 lung),TGI (RPMI-8226 leukemia),TGI (SF-268 CNS),TGI (SK-OV-3 ovarian),TGI (SNB-75 CNS),TGI (SR leukemia)
O=C1/C(=C/c2cccc([N+](=O)[O-])c2)CCCc2ccccc21,26.6 µM,30.1 µM,22 µM,21.6 µM,14.6 µM,19.9 µM,49 µM,19.3 µM,63.8 µM,29.9 µM,11 µM
N#C/C(=C\c1ccc(Cl)cc1)c1nc2ccccc2c(=O)[nH]1,> 100 µM,> 100 µM,> 100 µM,> 100 µM,> 100 µM,> 100 µM,> 100 µM,> 100 µM,> 100 µM,61.7 µM,> 100 µM
CCCCCCN(C(=O)Oc1ccccc1)C(C#N)c1ccccc1 (centres undefined),> 100 µM,> 100 µM,> 100 µM,> 100 µM,> 100 µM,> 100 µM,> 100 µM,> 100 µM,> 100 µM,> 100 µM,> 100 µM
CCN(CC)CCCCC1CCN(CC(=O)N2c3ccccc3NC(=O)c3ccccc32)CC1,> 100 µM,> 100 µM,> 100 µM,> 100 µM,> 100 µM,> 100 µM,> 100 µM,> 100 µM,> 100 µM,> 100 µM,> 100 µM
COc1ccc2oc(=N)c(C(N)=S)cc2c1,> 100 µM,> 100 µM,33.6 µM,> 100 µM,> 100 µM,35.3 µM,82.3 µM,64.3 µM,> 100 µM,74.8 µM,> 100 µM
CCOc1ccc(NCC(=O)N2CC(=O)Nc3ccccc32)cc1,> 100 µM,> 100 µM,> 100 µM,> 100 µM,> 100 µM,> 100 µM,> 100 µM,> 100 µM,> 100 µM,> 100 µM,> 100 µM
COC(=O)n1c(=O)nc2c3c(ncn21)Oc1c(c(-c2ccccc2)nn1-c1ccccc1)C3c1ccc(Cl)cc1 (centres undefined),2.81 µM,2.98 µM,2.72 µM,3.17 µM,3.37 µM,2.82 µM,4.07 µM,–,12.1 µM,7.69 µM,4.31 µM
Cc1sc2ncnc(NCCc3ccccc3)c2c1C,45.7 µM,56.7 µM,31.1 µM,29.3 µM,63.1 µM,25.1 µM,42.8 µM,60.1 µM,73.4 µM,53.5 µM,26.6 µM
Oc1ccccc1C=Nc1ccc(Oc2ccc(Cl)cc2)c(Cl)c1,98.7 µM,95.4 µM,45.7 µM,65.4 µM,–,31.6 µM,81.1 µM,43.5 µM,71.2 µM,58.6 µM,69.3 µM
CN(C)c1ccc(C2CC(=O)CC(c3ccc(N(C)C)cc3)C23C(=O)NC(=O)NC3=O)cc1 (centres undefined),> 25 µM,> 25 µM,> 25 µM,> 25 µM,> 25 µM,> 25 µM,> 25 µM,> 25 µM,–,> 25 µM,> 25 µM
CC(=O)NNC=N/C(C#N)=C(\N)C#N,> 100 µM,> 100 µM,> 100 µM,> 100 µM,> 100 µM,> 100 µM,> 100 µM,> 100 µM,> 100 µM,> 100 µM,> 100 µM
CC(=O)Nc1c(C)cc(OCC(=O)O)cc1C,> 100 µM,> 100 µM,> 100 µM,> 100 µM,> 100 µM,> 100 µM,> 100 µM,> 100 µM,> 100 µM,> 100 µM,> 100 µM
C[N+](C)(C)CC1Cc2ccccc2C1=O (centres undefined),> 10 µM,> 8.58 µM,> 10 µM,4.45 µM,5.07 µM,4.56 µM,> 6.86 µM,> 10 µM,> 10 µM,> 10 µM,7.11 µM
CC1C2CC(C(C3C(=O)C4CC3C(C)(C)C4C)C2=O)C1(C)C (centres undefined),> 100 µM,> 100 µM,> 100 µM,> 100 µM,> 100 µM,> 100 µM,–,> 100 µM,> 100 µM,> 100 µM,> 100 µM
CC1=NC(=Cc2ccc(Cl)cc2)C(=O)N1n1c(-c2ccccc2)nc2ccccc2c1=O,> 100 µM,69.1 µM,> 100 µM,78.6 µM,> 100 µM,43 µM,> 100 µM,> 100 µM,> 100 µM,99.6 µM,> 100 µM
CC[C@@]1(O)C(=O)OCc2c1c(Cl)c1n(c2=O)Cc2cc3ccccc3nc2-1,6.68 µM,16.4 µM,80.6 µM,> 26.3 µM,> 100 µM,20.8 µM,> 100 µM,67.7 µM,45.5 µM,12.7 µM,> 23.7 µM

Structure (SMILES),TGI (786-0 renal),TGI (CAKI-1 renal),TGI (HCC-2998 colon),TGI (HL-60(TB) leukemia),TGI (K-562 leukemia),TGI (NCI-H522 lung),TGI (RPMI-8226 leukemia),TGI (SF-268 CNS),TGI (SK-OV-3 ovarian),TGI (SNB-75 CNS),TGI (SR leukemia)
CCOC(=O)CNC(=O)C(CSC(=O)N(O)c1ccc(Br)cc1)NC(=O)CCC(N)C(=O)OCC (centres undefined),> 50 µM,> 50 µM,> 50 µM,0.00622 µM,> 50 µM,> 50 µM,> 50 µM,> 50 µM,> 50 µM,–,> 50 µM
CCCCOC(=O)/C(CC(=O)C=C(C)C)=N\NS(=O)(=O)c1ccc(C)cc1,> 100 µM,> 100 µM,> 100 µM,> 100 µM,> 100 µM,> 100 µM,> 100 µM,> 100 µM,> 100 µM,> 100 µM,71.8 µM
O=C1C(NCCc2cc(Br)c(O)c(Br)c2)=CC(=O)c2ncccc21,34.4 µM,25 µM,26 µM,12.7 µM,13.8 µM,12.1 µM,23.2 µM,40.3 µM,68.1 µM,5.34 µM,6.46 µM
CCOc1ccc(C2c3[nH]c4ccccc4c3CCN2C(=O)c2cccs2)cc1 (centres undefined),> 100 µM,> 100 µM,> 100 µM,> 100 µM,> 100 µM,> 100 µM,> 100 µM,> 100 µM,> 100 µM,> 100 µM,> 100 µM
COc1ccc(CSCc2cc(OC)c(OC)c(OC)c2)cc1,> 100 µM,> 100 µM,> 31.6 µM,> 100 µM,> 100 µM,> 100 µM,> 100 µM,> 100 µM,> 100 µM,> 100 µM,> 100 µM
CCN(CC)c1ccc(/C=C/C2=NN(c3cccc(S(=O)(=O)O)c3)C3(C2)C(Cl)C(=O)N3c2nc3ccccc3s2)cc1 (centres undefined),15.9 µM,8.26 µM,21.4 µM,4.01 µM,49.8 µM,3.57 µM,6.89 µM,41.5 µM,39.3 µM,25.3 µM,7.41 µM
O=c1cc(-c2ccc(O)c(O)c2)oc2cc(OC3OC(CO)C(O)C(O)C3O)cc(O)c12 (centres undefined),> 100 µM,> 100 µM,> 100 µM,> 100 µM,–,> 100 µM,> 100 µM,> 100 µM,> 100 µM,> 100 µM,> 100 µM
COC(=O)c1c/c(=N\NC(=O)CC(=O)Nc2ccccc2Cl)c2ccccc2o1,> 100 µM,> 100 µM,> 100 µM,> 100 µM,> 100 µM,> 100 µM,> 100 µM,> 100 µM,> 100 µM,> 100 µM,> 100 µM
O=C(Cc1ccccc1)N/N=C(/CCN1CCCC1)CC(c1ccccc1)c1c(O)c2ccccc2oc1=O (centres undefined),> 100 µM,> 100 µM,> 100 µM,> 100 µM,> 100 µM,> 100 µM,> 100 µM,> 100 µM,> 100 µM,> 100 µM,> 100 µM
Cc1c(-c2ccccc2)c(-c2ccc(OCCN(C)C)cc2)n2ccccc12,20.9 µM,23.9 µM,3.27 µM,19.4 µM,4.14 µM,24 µM,6.96 µM,34.2 µM,30.2 µM,22.4 µM,6.49 µM
CC(=O)c1c2c(cc3c1CC1(Cc4cc5c(cc4C1)CCC5)C3)CCC2,> 100 µM,> 100 µM,> 100 µM,> 100 µM,> 100 µM,> 100 µM,> 100 µM,> 100 µM,> 100 µM,> 100 µM,> 100 µM
Cc1ccc2c(c1)C(C1Cc3c(C)cccc3C1=O)OC2=O (centres undefined),> 100 µM,> 100 µM,> 100 µM,> 100 µM,> 100 µM,> 100 µM,> 100 µM,> 100 µM,> 100 µM,> 100 µM,> 100 µM
O=C(Nc1ccccc1)N1CCNC1=S,> 100 µM,> 100 µM,85.8 µM,> 100 µM,> 100 µM,> 100 µM,> 100 µM,> 100 µM,> 100 µM,> 100 µM,> 100 µM
O=C(CCN(CCO)CCO)Nc1ccc2c(c1)C(=O)c1ccc(NC(=O)CCN(CCO)CCO)cc1C2=O,32 µM,32.2 µM,8.52 µM,45.7 µM,74.4 µM,19.7 µM,> 100 µM,60.6 µM,> 100 µM,> 100 µM,> 100 µM
CN(CCO)CC(=O)CC(O)(C(F)(F)F)C(F)(F)F,> 100 µM,90.3 µM,> 100 µM,73.5 µM,> 100 µM,> 100 µM,> 100 µM,–,74.3 µM,51.7 µM,> 100 µM
